For orientation: IC50 means the concentration needed to halve the response being measured. By inhibition is commonly meant the drop in the measured response relative to a control, in per cent. As usually defined, the EC50 is the concentration giving half of the maximal effect.

Each structure is given as a SMILES string. Where only a bound is given, the exact number is not on record here.

Consider nine compounds from patent US10183944B2 (Asana Biosciences, LLC, priority 2011, dated 2019).

The target of one experiment is JAK2 (Homo sapiens (Human), UniProt O60674). Put plainly: Inhibition of enzymatic JAK2 kinase activity (TR-FRET). It counts as biochemical. The settings on record: read-out: IC50 JAK. The essentials: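 TR-FRET read-out (Eu antibody donor, Ulight poly Glu-Tyr acceptor, 665/615 nm ratio) after a 60 min RT kinase reaction with ATP, begun following 30 min compound–enzyme preincubation. Stopped by EDTA; inhibition expressed as 100 minus % activity of positive control.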
Sequence of JAK2 (O60674 808-1132): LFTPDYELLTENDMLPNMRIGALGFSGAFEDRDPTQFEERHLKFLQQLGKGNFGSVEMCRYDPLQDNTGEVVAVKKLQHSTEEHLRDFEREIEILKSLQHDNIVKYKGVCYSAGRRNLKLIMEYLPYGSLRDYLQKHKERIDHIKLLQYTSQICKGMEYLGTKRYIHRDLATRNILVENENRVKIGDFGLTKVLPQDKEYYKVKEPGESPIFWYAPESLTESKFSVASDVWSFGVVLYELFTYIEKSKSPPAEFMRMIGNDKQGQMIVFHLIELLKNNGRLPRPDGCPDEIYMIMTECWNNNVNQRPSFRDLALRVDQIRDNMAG
For orientation: TR-FRET usually uses a lanthanide donor and a delayed reading to cut background.

The target of experiment [1] is Syk (356-635 amino acids) catalytic domain (Homo sapiens (Human), UniProt P43405). The experiment can be described thus: Inhibition of enzymatic Syk kinase activity (radiometric). It counts as biochemical. The settings on record: read-out: IC50 Syk. Summed up:
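Radiometric filter-binding format: 32P transfer from γ-32P-ATP onto pG4T, scintillation-counted after acid washes of P81 paper. Syk kinase domain (356-635), 0.035–7.5 ng per reaction, was exposed to compound for 30 minutes at room temperature before a 10-minute, 30° C. reaction with ATP (100 μM stock). Inhibition derived from counts with versus without compound.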

The next experiment has as its system RBL2H3 cells. The experiment can be described thus: Degranulation assay: β-hexosaminidase release during immune complex mediated degranulation. The settings on record: Rattus norvegicus, RBL-2H3, Assay Protocol B (96 well format); for inhibition at 1 µM: read-out: Degranulation % inhibition at 1 μM; for EC50: read-out: Degranulation EC50. It counts as cell-based, rat. Summed up:
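Fluorometric β-NAG read-out (Ex 355, Em 460 nm; 30 min, RT) of supernatant after DNP-BSA stimulation (45–60 min) of anti-DNP IgE-sensitized RBL2H3 cells. Compounds (0.5% DMSO) added 15 min before antigen; degranulation expressed as % β-hexosaminidase release or inhibition.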

As to `CC(C)(CO)N1CCN(c2ccc(Nc3nc(N4CCCCCC4)nc4cn[nH]c(=O)c34)cc2)CC1` [Example 265, 2-(azepan-1-yl)-4-((4-(4-(1-hydroxy-2-methylpropan-2-yl)piperazin-1-yl)phenyl)amino)pyrimido[4,5-d]pyridazin-5(6H)-one], the IC50 at JAK2 is below 0.01 µM. Also, in experiment [1], the IC50 is below 0.01 µM. In addition, in the experiment with RBL2H3 cells, the inhibition at 1 µM was found to be 79% and the EC50 was 0.03 µM.
Regarding `CC(C)(CO)N1CCN(c2ccc(Nc3nc(N4CCC(CC#N)CC4)nc4cn[nH]c(=O)c34)cc2)CC1` [Example 266, 2-(1-(4-((4-(4-(1-hydroxy-2-methylpropan-2-yl)piperazin-1-yl)phenyl)amino)-5-oxo-5,6-dihydropyrimido[4,5-d]pyridazin-2-yl)piperidin-4-yl) acetonitrile], the IC50 at JAK2 is below 0.05 µM. The half-inhibitory concentration (IC50) in experiment [1] is below 0.01 µM. For the same compound, in the experiment on RBL2H3 cells, the inhibition at 1 µM worked out at 99% and the EC50 turned out to be 0.01 µM.
Take `CN(C)CCN1CCN(c2ccc(Nc3nc(N4CCCCCC4)nc4cn[nH]c(=O)c34)cc2)CC1` [Example 267, 2-(azepan-1-yl)-4-((4-(4-(2-(dimethylamino)ethyl)piperazin-1-yl)phenyl)amino)pyrimido[4,5-d]pyridazin-5(6H)-one]: the IC50 on JAK2 was below 0.01 µM. In experiment [1], the IC50 was below 0.01 µM. Moreover, in the experiment on RBL2H3 cells, the inhibition at 1 µM worked out at 90% and the EC50 amounted to 0.021 µM.
With `CN(C)CCN1CCN(c2ccc(Nc3nc(N4CCC(CC#N)CC4)nc4cn[nH]c(=O)c34)cc2)CC1` [Example 268, 2-(1-(4-((4-(4-(2-(dimethylamino)ethyl)piperazin-1-yl)phenyl)amino)-5-oxo-5,6-dihydropyrimido[4,5-d]pyridazin-2-yl)piperidin-4-yl)acetonitrile], the IC50 on JAK2 is below 0.05 µM; in experiment [1] it was below 0.01 µM. Also, in the experiment on RBL2H3 cells, the inhibition at 1 µM is 93%. Also, in the experiment with RBL2H3 cells, the EC50 is 0.02 µM.
`O=c1[nH]ncc2nc(N3CCCCCC3)nc(Nc3ccc(N4CCN(CC(O)CO)CC4)cc3)c12` (stereo not drawn) [Example 273, 2-(azepan-1-yl)-4-((4-(4-(2,3-dihydroxypropyl)piperazin-1-yl)phenyl)amino)pyrimido[4,5-d]pyridazin-5(6H)-one]: the IC50 on JAK2 was below 0.01 µM. Moreover, the IC50 in experiment [1] is below 0.01 µM. Besides, in the experiment on RBL2H3 cells, the inhibition at 1 µM came to 91% and the EC50 was determined as 0.021 µM.
In the case of `N#CCC1CCN(c2nc(Nc3ccc(N4CCN(CC(O)CO)CC4)cc3)c3c(=O)[nH]ncc3n2)CC1` (stereo not drawn) [Example 274, 2-(1-(4-((4-(4-(2,3-dihydroxypropyl)piperazin-1-yl)phenyl)amino)-5-oxo-5,6-dihydropyrimido[4,5-d]pyridazin-2-yl)piperidin-4-yl)acetonitrile], the IC50 at JAK2 is below 0.01 µM. For the same compound, the IC50 in experiment [1] is below 0.01 µM. Besides, in the experiment with RBL2H3 cells, the inhibition at 1 µM is 59% and the EC50 was 0.081 µM.
Turning to `O=c1[nH]ncc2nc(N3CCCCCC3)nc(Nc3ccc(N4CCN(CCF)CC4)cc3)c12` [Example 275, 2-(azepan-1-yl)-4-((4-(4-(2-fluoroethyl)piperazin-1-yl)phenyl)amino) pyrimido[4,5-d]pyridazin-5(6H)-one], the IC50 at JAK2 was below 0.01 µM. Moreover, the IC50 in experiment [1] is below 0.01 µM. In the experiment on RBL2H3 cells, the inhibition at 1 µM was found to be 73% and the EC50 turned out to be 0.015 µM.
Take `N#CCC1CCN(c2nc(Nc3ccc(N4CCN(CCF)CC4)cc3)c3c(=O)[nH]ncc3n2)CC1` [Example 276, 2-(1-(4-((4-(4-(2-fluoroethyl)piperazin-1-yl)phenyl)amino)-5-oxo-5,6-dihydropyrimido[4,5-d]pyridazin-2-yl)piperidin-4-yl)acetonitrile]: the IC50 at JAK2 is below 0.05 µM. For the same compound, the IC50 in experiment [1] is below 0.01 µM. In the experiment with RBL2H3 cells, the inhibition at 1 µM worked out at 91% and the EC50 stood at 0.024 µM.
The matching figures for `O=c1[nH]ncc2nc(N3CCCCCC3)nc(Nc3ccc(N4CCCC(O)C4)nc3)c12` (stereo not drawn) [Example 277, 2-(azepan-1-yl)-4-((6-(3-hydroxypiperidin-1-yl)pyridin-3-yl)amino)pyrimido[4,5-d]pyridazin-5(6H)-one]: below 0.05 µM, below 0.01 µM, 74% and 0.042 µM.
